Converted amounts (≈) assume the structure as drawn. Peptide text beside a SMILES is read from it. * marks the point of attachment. Orn(α-tetramethylguanidino) = CN(C)C(=N[C@@H](CCCN)C(=O)*)N(C)C
Legend:
[1] = tested on: Pseudomonas aeruginosa DSM 9644; type: cell-based
Method: (§1) The minimum inhibitory concentrations (MIC) of the peptides were determined in a double assay of triplicates using a positive control sample (gentamycin) and a negative control sample (0.9% NaCl solution), according to a modified protocol from Wiegand et al. (Wiegand, 2008).
[…] Overnight cultures were adjusted using ⅛ MHB to approximately 1.5×10^7 colony forming units per mL. Of these, 50 μL of peptide solution per well was mixed with 50 μL bacteria solution each to obtain an initial concentration of […] bacteria per well. After 20 hours of incubation at 37′C, the absorption was determined at 595 nm (microplate reader, Wallac Victor3, Perkin Elmer). The minimum inhibitory concentration was identified as the lowest peptide concentration at which no bacterial growth could be detected.
(§2) In the experiment, the antibacterial activity of the peptides according to the invention in relation to the following bacterial strains was analyzed: Pseudomonas aeruginosa PAO1 (wt strain), Pseudomonas aeruginosa DSM 9644, Staphylococcus aureus DSM 1104/ATCC 25923, Staphylococcus aureus ATCC 6247, Escherichia coli UB 1005 (F—, nalA37, metB1) and Escherichia coli ATCC25922.

E. coli DSM 1103 = type: cell-based, Escherichia coli
Method: as §1
(§3) For this purpose, the peptides were dissolved in water and were diluted in a double dilution series with 1/8 MH (eight-fold diluted Mueller-Hinton-Medium—2.6 g/L, Merck) in sterile 96-well, plates (Greiner Bio-One GmbH) in twelve dilution steps from 128 μg/mL to 62.5 ng/mL. Overnight cultures were adjusted using ⅛ MHB to approximately 1.5×10^7 colony forming units per mL. Of these, 50 μL of peptide solution per well was mixed with 50 μL bacteria solution each to obtain an initial concentration of […] bacteria per well. After 20 hours of incubation at 37′C, the absorption was determined at 595 nm (microplate reader, Wallac Victor3, Perkin Elmer). The minimum inhibitory concentration was identified as the lowest peptide concentration at which no bacterial growth could be detected.

S. aureus DSM 6247 = type: cell-based, Staphylococcus aureus
Method: as §1, §3, §2

[2] = tested on: Pseudomonas aeruginosa PAO1 (wt strain); type: cell-based; conditions: for Improvement over Native Sequence (SEQ No. 2) P. aeruginosa PAO1 wt: fold, from MIC in 1/8 MHB
Method: as §1, §3, §2

[3] = tested on: Staphylococcus aureus DSM 1104/ATCC 25923; type: cell-based; conditions: for MIC S. aureus ATCC 25923 / MIC S. aureus DSM 1104/ATCC 25923: DSM 1104; for Improvement over Native Sequence (SEQ No. 2) S. aureus ATCC 25923: fold, from MIC in 1/8 MHB
Method: as §1, §3, §2

[4] = tested on: Escherichia coli ATCC25922; type: cell-based
Escherichia coli UB 1005 = experiment: Minimum inhibitory concentration (MIC), broth microdilution; type: cell-based; conditions: for MIC E. coli UB1005: 1/8 MHB, Table 4; for Improvement over Native Sequence (SEQ No. 2) E. coli UB1005: fold, from MIC in 1/8 MHB
Method: as §1, §3, §2

Structure (SMILES): CC[C@H](C)[C@H](NC(=O)[C@H](Cc1ccc(O)cc1)NC(=O)[C@@H](NC(=O)[C@@H]1CCCN1C(=O)[C@H](CCCNC(=N)N)NC(=O)[C@H](CC(N)=O)NC(=O)[C@H](CC(N)=O)NC(=O)[C@H](CCCN)N=C(N(C)C)N(C)C)C(C)C)C(=O)N1CCC[C@H]1C(=O)N[C@@H](CCCNC(=N)N)C(=O)N1CCC[C@H]1C(=O)N[C@@H](CCCNC(=N)N)C(=O)N[C@@H](CCCNC(=N)N)C(=O)N1CCC[C@H]1C(=O)N[C@@H](Cc1c[nH]cn1)C(=O)N1CCC[C@H]1C(=O)N[C@@H](CCCNC(=N)N)C(=O)N[C@@H](CC(C)C)C(=O)O [compound 86] ({Orn(α-tetramethylguanidino)}-NNRPVYIPRPRRPHPRL-OH)
- MIC P. aeruginosa PAO DSM 9644 [1]: 32 µg/mL (≈ 13.6 µM)
- MIC E. coli DSM 1103 (E. coli DSM 1103): 8 µg/mL (≈ 3.4 µM)
- MIC S. aureus DSM 6247 (S. aureus DSM 6247): 32 µg/mL (≈ 13.6 µM)

Structure (SMILES): CC[C@H](C)[C@H](NC(=O)[C@H](Cc1ccc(O)cc1)NC(=O)[C@@H](NC(=O)[C@@H]1CCCN1C(=O)[C@H](CCCNC(=N)N)NC(=O)[C@H](CC(N)=O)NC(=O)[C@H](CC(N)=O)NC(=O)[C@H](CCCN)N=C(N(C)C)N(C)C)C(C)C)C(=O)N1CCC[C@H]1C(=O)N[C@@H](CCCNC(=N)N)C(=O)N1CCC[C@H]1C(=O)N[C@@H](CCCNC(=N)N)C(=O)N[C@@H](CCCNC(=N)N)C(=O)N1CCC[C@H]1C(=O)N[C@@H](Cc1c[nH]cn1)C(=O)N1CCC[C@H]1C(=O)N[C@@H](CCCNC(=N)N)C(=O)N[C@@H](CC(C)C)C(N)=O [compound 88] ({Orn(α-tetramethylguanidino)}-NNRPVYIPRPRRPHPRL-NH2)
- MIC P. aeruginosa PAO DSM 9644 [1]: 16 µg/mL (≈ 6.81 µM)
- MIC E. coli DSM 1103 (E. coli DSM 1103): 8 µg/mL (≈ 3.4 µM)
- MIC S. aureus DSM 6247 (S. aureus DSM 6247): 16 µg/mL (≈ 6.81 µM)

Structure (SMILES): CC[C@H](C)[C@H](NC(=O)[C@H](Cc1ccc(O)cc1)NC(=O)[C@@H](NC(=O)[C@@H]1CCCN1C(=O)[C@H](CCCNC(=N)N)NC(=O)[C@H](CC(N)=O)NC(=O)[C@H](Cc1c[nH]c2ccccc12)NC(=O)CN)C(C)C)C(=O)N1CCC[C@H]1C(=O)N[C@@H](CCC(N)=O)C(=O)N1CCC[C@H]1C(=O)N[C@@H](CCCNC(=N)N)C(=O)N[C@@H](CCCNC(=N)N)C(=O)N1CCC[C@H]1C(=O)N[C@@H](Cc1c[nH]cn1)C(=O)N1CCC[C@H]1C(=O)N[C@@H](CCCNC(=N)N)C(=O)N[C@@H](CC(C)C)C(N)=O [compound 52] (H-GWNRPVYIPQPRRPHPRL-NH2; N-terminus assumed)
- MIC P. aeruginosa PAO DSM 9644 [1]: 64 µg/mL (≈ 28.6 µM)
- MIC P. aeruginosa PAO1 wt [2]: 64 µg/mL (≈ 28.6 µM)
- Improvement over Native Sequence (SEQ No. 2) P. aeruginosa PAO1 wt [2]: 8
- MIC S. aureus ATCC 25923 [3]: 4 to 8 µg/mL
- MIC S. aureus DSM 1104/ATCC 25923 [3]: 4 to 8 µg/mL
- Improvement over Native Sequence (SEQ No. 2) S. aureus ATCC 25923 [3]: 31-64
- MIC E. coli ATCC 25922 [4]: 16 µg/mL (≈ 7.15 µM)
- MIC E. coli UB1005 (Escherichia coli UB 1005): 5 µg/mL (≈ 2.23 µM)
- Improvement over Native Sequence (SEQ No. 2) E. coli UB1005 (Escherichia coli UB 1005): 1
- MIC S. aureus DSM 6247 (S. aureus DSM 6247): 2 µg/mL (≈ 0.893 µM)

Structure (SMILES): CC[C@H](C)[C@H](NC(=O)[C@H](Cc1ccc(O)cc1)NC(=O)[C@@H](NC(=O)[C@@H]1CCCN1C(=O)[C@H](CCCNC(=N)N)NC(=O)[C@H](CC(N)=O)NC(=O)[C@H](CC(N)=O)NC(=O)CN)C(C)C)C(=O)N1CCC[C@H]1C(=O)N[C@@H](CCCNC(=N)N)C(=O)N1CCC[C@H]1C(=O)N[C@@H](CCCNC(=N)N)C(=O)N[C@@H](CCCNC(=N)N)C(=O)N1CCC[C@H]1C(=O)N[C@@H](Cc1c[nH]cn1)C(=O)N1CCC[C@H]1C(=O)N[C@@H](CCCNC(=N)N)C(=O)N[C@@H](CC(C)C)C(N)=O [compound 64] (H-GNNRPVYIPRPRRPHPRL-NH2; N-terminus assumed)
- MIC P. aeruginosa PAO DSM 9644 [1]: 32 µg/mL (≈ 14.6 µM)
- MIC P. aeruginosa PAO1 wt [2]: 64 µg/mL (≈ 29.2 µM)
- Improvement over Native Sequence (SEQ No. 2) P. aeruginosa PAO1 wt [2]: 8
- MIC S. aureus ATCC 25923 [3]: 4 µg/mL (≈ 1.82 µM)
- MIC S. aureus DSM 1104/ATCC 25923 [3]: 4 µg/mL (≈ 1.82 µM)
- Improvement over Native Sequence (SEQ No. 2) S. aureus ATCC 25923 [3]: 64
- MIC E. coli ATCC 25922 [4]: 8 µg/mL (≈ 3.65 µM)
- MIC E. coli UB1005 (Escherichia coli UB 1005): 2.5 µg/mL (≈ 1.14 µM)
- Improvement over Native Sequence (SEQ No. 2) E. coli UB1005 (Escherichia coli UB 1005): 2
- MIC S. aureus DSM 6247 (S. aureus DSM 6247): 2 µg/mL (≈ 0.911 µM)

— US9556228B2 (Universitaet Leipzig, priority 2011, dated 2017)
